Measured values: the supplement of paper PMC10307832

Assays:
Test in all cases: relative viability (nuclei count vs DMSO), 5 days (fraction); higher = more cells survive
Pictilisib + Alpelisib = compound: CS(=O)(=O)N1CCN(Cc2cc3nc(-c4cccc5[nH]ncc45)nc(N4CCOCC4)c3s2)CC1 [Pictilisib] + Cc1nc(NC(=O)N2CCC[C@H]2C(N)=O)sc1-c1ccnc(C(C)(C)C(F)(F)F)c1 [Alpelisib] (partner 2 µM)
Procedure, shortened: (§1)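 Medians of duplicate plates are given as relative viability. That measure is the nuclei count in treated wells divided by the count in vehicle wells. Counts were taken on 4× images of lung cancer cell lines in 1536-well plates, 5 days after pin-tool dosing the day after seeding with one drug alone or a fixed anchor-drug dose plus five library-drug doses (not always all listed) in √10 steps.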

MK-2206 + Dasatinib = compound: NC1(c2ccc(-c3nc4ccn5c(=O)[nH]nc5c4cc3-c3ccccc3)cc2)CCC1 [MK-2206] + Cc1nc(Nc2ncc(C(=O)Nc3c(C)cccc3Cl)s2)cc(N2CCN(CCO)CC2)n1 [Dasatinib] (partner 0.075 µM)
Procedure, shortened: as §1

MK-2206 + Phenformin = compound: NC1(c2ccc(-c3nc4ccn5c(=O)[nH]nc5c4cc3-c3ccccc3)cc2)CCC1 [MK-2206] + N=C(N)NC(=N)NCCc1ccccc1 [Phenformin] (partner 250 µM)
Procedure, shortened: as §1

MK-2206 + Pemetrexed = compound: NC1(c2ccc(-c3nc4ccn5c(=O)[nH]nc5c4cc3-c3ccccc3)cc2)CCC1 [MK-2206] + Nc1nc2[nH]cc(CCc3ccc(C(=O)N[C@@H](CCC(=O)O)C(=O)O)cc3)c2c(=O)[nH]1 [Pemetrexed] (partner 0.2 µM)
Procedure, shortened: as §1

MK-2206 + Navitoclax = compound: NC1(c2ccc(-c3nc4ccn5c(=O)[nH]nc5c4cc3-c3ccccc3)cc2)CCC1 [MK-2206] + CC1(C)CCC(c2ccc(Cl)cc2)=C(CN2CCN(c3ccc(C(=O)NS(=O)(=O)c4ccc(N[C@H](CCN5CCOCC5)CSc5ccccc5)c(S(=O)(=O)C(F)(F)F)c4)cc3)CC2)C1 [Navitoclax] (partner 0.5 µM)
Procedure, shortened: as §1

Cell Line | relative viability (Pictilisib + Alpelisib; first compound 0.02 µM) | relative viability (Pictilisib + Alpelisib; first compound 0.06325 µM) | relative viability (Pictilisib + Alpelisib; first compound 0.6325 µM) | relative viability (Pictilisib + Alpelisib; first compound 2 µM) | relative viability (MK-2206 + Dasatinib; first compound 0.01 µM) | relative viability (MK-2206 + Dasatinib; first compound 0.03162 µM) | relative viability (MK-2206 + Dasatinib; first compound 0.3162 µM) | relative viability (MK-2206 + Dasatinib; first compound 1 µM) | relative viability (MK-2206 + Phenformin; first compound 0.01 µM) | relative viability (MK-2206 + Phenformin; first compound 0.03162 µM) | relative viability (MK-2206 + Phenformin; first compound 0.3162 µM) | relative viability (MK-2206 + Phenformin; first compound 1 µM) | relative viability (MK-2206 + Pemetrexed; first compound 0.01 µM) | relative viability (MK-2206 + Pemetrexed; first compound 0.03162 µM) | relative viability (MK-2206 + Pemetrexed; first compound 0.3162 µM) | relative viability (MK-2206 + Pemetrexed; first compound 1 µM) | relative viability (MK-2206 + Navitoclax; first compound 0.01 µM) | relative viability (MK-2206 + Navitoclax; first compound 0.03162 µM) | relative viability (MK-2206 + Navitoclax; first compound 0.3162 µM) | relative viability (MK-2206 + Navitoclax; first compound 1 µM)
NCI-H661 | 0.598 | 0.794 | 0.579 | 0.373 | 0.898 | 0.907 | 0.856 | 0.949 | 0.252 | 0.289 | 0.257 | 0.255 | 0.986 | 0.91 | 0.876 | 0.877 | – | – | – | –
CAL-12T | 1.32 | 1.12 | 1.19 | 0.883 | 0.486 | 0.504 | 0.355 | 0.345 | 0.492 | 0.561 | 0.626 | 0.564 | 1.12 | 1.07 | 1.28 | 1.06 | 0.963 | 1.32 | 1.22 | 1.14
HARA | 0.766 | 0.888 | 0.768 | 0.494 | 0.321 | 0.302 | 0.329 | 0.227 | 0.432 | 0.577 | 0.386 | 0.415 | 0.269 | 0.23 | 0.265 | 0.217 | 1.08 | 1.11 | 1.24 | 1.17
NCI-H596 | 0.476 | 0.481 | 0.523 | 0.36 | 0.669 | 0.662 | 0.577 | 0.505 | 0.738 | 0.956 | 0.651 | 0.481 | 0.45 | 0.567 | 0.502 | 0.498 | 0.948 | 1.06 | 0.756 | 0.669
LU99A | 0.461 | 0.61 | 0.413 | 0.287 | 0.524 | 0.733 | 0.48 | 0.498 | 1.01 | 0.874 | 0.803 | 0.903 | 0.174 | 0.152 | 0.186 | 0.203 | 0.862 | 0.77 | 0.72 | 0.822
LC-2-ad | 0.918 | 0.828 | 0.634 | 0.484 | 0.581 | 0.579 | 0.505 | 0.2 | 0.544 | 0.589 | 0.532 | 0.365 | 0.282 | 0.254 | 0.28 | 0.25 | 0.423 | 0.506 | 0.288 | 0.3
NCI-H1650 | – | – | – | – | 0.312 | 0.273 | 0.215 | 0.244 | 0.509 | 0.465 | 0.388 | 0.384 | 0.3 | 0.379 | 0.319 | 0.347 | 1.11 | 1 | 1.06 | 1.02
NCI-H1915 | 1.08 | 1.11 | 0.998 | 1.07 | 0.348 | 0.329 | 0.348 | 0.271 | 0.351 | 0.384 | 0.379 | 0.367 | 0.487 | 0.42 | 0.473 | 0.494 | 0.813 | 0.83 | 0.835 | 0.784
ABC-1 | 1.1 | 1.04 | 0.995 | 0.809 | 0.499 | 0.534 | 0.388 | 0.399 | 0.265 | 0.235 | 0.196 | 0.232 | – | – | – | – | – | – | – | –
HCC-44 | 0.893 | 0.79 | 0.674 | 0.412 | – | – | – | – | 0.184 | 0.184 | 0.152 | 0.107 | 0.632 | 0.593 | 0.61 | 0.675 | 0.868 | 0.962 | 0.868 | 0.818
HCC-78 | 0.332 | 0.279 | 0.289 | 0.19 | 0.511 | – | 0.373 | 0.227 | 0.7 | – | 0.753 | 0.524 | 0.934 | 0.924 | 0.909 | 0.934 | 0.735 | 0.875 | 0.732 | 0.488
LXF-289 | 1.08 | 1.07 | 1.06 | 0.822 | 0.212 | 0.251 | 0.254 | 0.203 | 0.506 | 0.542 | 0.542 | 0.548 | 0.886 | 0.873 | 0.956 | 1.17 | 0.914 | 1.01 | 1.01 | 0.972
201T | 1.01 | 1.02 | 0.979 | 0.773 | 0.623 | 0.581 | 0.553 | 0.525 | 0.446 | 0.417 | 0.42 | 0.52 | 0.318 | 0.313 | 0.342 | 0.333 | 1.23 | 1.28 | 1.23 | 1.21
NCI-H1734 | 0.709 | 0.588 | 0.546 | 0.406 | 0.501 | 0.449 | 0.408 | 0.387 | 0.355 | 0.458 | 0.304 | 0.338 | 0.393 | 0.391 | 0.401 | 0.391 | 0.848 | 0.85 | 0.584 | 0.681
NCI-H1623 | – | – | – | – | 0.518 | 0.471 | 0.556 | 0.423 | 0.555 | 0.592 | 0.574 | 0.605 | – | – | – | – | – | – | – | –
NCI-H2126 | 0.776 | 0.712 | 0.679 | 0.564 | 0.686 | 0.625 | 0.5 | 0.476 | 0.515 | 0.501 | 0.446 | 0.426 | 0.708 | 0.653 | 0.61 | 0.701 | 0.821 | 0.814 | 0.782 | 0.793
LOU-NH91 | 0.742 | 0.741 | 0.697 | 0.585 | 0.628 | 0.638 | 0.571 | 0.375 | 0.682 | 0.727 | 0.683 | 0.555 | 0.366 | 0.406 | 0.345 | 0.356 | 0.702 | 0.745 | 0.749 | 0.621
